Marks after values point to notes of the source that are not given here.
Tests used:
[1] = Water maze test in rats with ibotenic acid-induced learning and memory disorder; assay type: in vivo, rat (Wistar); conditions: forced oral 10 mg/kg once a day, average ± standard error, n=9
Procedure: Male Wistar rats were purchased from Japan SLC, Inc., and used for an experiment from 7-week old after preliminary rearing. Ibotenic acid was administered intracerebrally to cause a learning and memory disorder. Nine rats were used for each group, and administration was begun one week after the administration of ibotenic acid. Xanthohumol of Example 1 was suspended in distilled water, and the rats were subjected to forced oral administration with the suspension at a ratio of 10 mg of xanthohumol per 1 kg of body weight. A control group was administered with distilled water in the same manner as above. The rats were administered once a day for consecutive days. A water maze test was carried out on and after the seventh day from the beginning of the administration to evaluate ability of recognizing spaces and directions.
The water maze test method was carried out as follows. Water of about 22° C. was charged in a large-scaled water vessel. A platform was set at a height of 2 cm below the water level, and rats were made to enter into water. The rats in water swim around so as to escape from water and take refuge in the platform. The time period from entering into water to taking refuge in the platform was recorded. After taking the refuge, the rats were made to observe surrounding environments on the platform. […]

NGF [2] = assay: NGF content in rat tissues after forced oral administration of xanthohumol (enzyme immunoassay); assay type: in vivo, rat (SD); conditions: excised on fifth day, average ± standard error, n=4
Procedure: (§1) (2) Male SD rats were purchased from Japan SLC, Inc., and used for an experiment from 7-week old after preliminary rearing. Xanthohumol described in Example 1 was suspended in distilled water, and the rats were subjected to forced oral administration of the suspension at a ratio of 3 and 10 mg of xanthohumol respectively per 1 kg of body weight. In addition, the suspension was intraperitoneally administered at a ratio of 1, 3 or 10 mg of xanthohumol. A control group was administered with distilled water in the same manner as above. In either group, four rats were administered once a day for consecutive days. In the case of the forced oral administration, the submandibular gland and the brain were excised on the fifth day from the beginning of administration. In the case of the intraperitoneal administration, ischiadic nerve and gastrocneminal muscle were excised at 4 hours after the end of administration on the third day. The excised tissues were homogenized and centrifuged, and the NGF contents in the supematant were determined by enzyme immunoassay method (manufactured by Roche).
(§2) The numbers in the tables represent an average value ± standard error for the four cases. In addition, an asterisk * symbol means that the group has a significant difference at a significance level of 5% or less as compared to the control group according to Student-t test, and a triple asterisk *** symbol means that the group similarly has a significant difference at a significance level of 0.1% or less.

[3] = assay type: in vivo; conditions: mouse, 1 g/kg in a single dose
Procedure: No toxicity is found even when the above-mentioned effective ingredient usable in the present invention is administered in an amount effective for the exhibition of its action.

NGF [4] = assay: NGF content in rat tissues after intraperitoneal administration of xanthohumol (enzyme immunoassay); assay type: in vivo, rat (SD); conditions: excised 4 hours after administration on third day, average ± standard error
Procedure: as §1, §2

[5] = forced oral 10 mg/kg once a day
[6] = intraperitoneal 1 mg/kg once a day
[7] = intraperitoneal 3 mg/kg once a day
[8] = intraperitoneal 10 mg/kg once a day

COc1cc(O)c(CC=C(C)C)c(O)c1C(=O)/C=C/c1ccc(O)cc1 [Xanthohumol, xanthohumol]
Time Period from entering water to taking refuge in the platform, First Trial ([1]; on and after seventh day): 140.7 ± 14.7 s
Time Period from entering water to taking refuge in the platform, Second Trial ([1]; second trial on next day): 71.3 ± 10.8 s
NGF Content in Brain of Rat (NGF [2]; forced oral 3 mg/kg once a day): 508.2 ± 95.1 pg/g tissue
NGF Content in Submandibular Gland of Rat (NGF [2]; forced oral 3 mg/kg once a day): 8.88 ± 0.98*** ng/g tissue
NGF Content in Brain of Rat (NGF [2]; [5]): 524.9 ± 200.7 pg/g tissue
NGF Content in Submandibular Gland of Rat (NGF [2]; [5]): 13.39 ± 0.65*** ng/g tissue
cases of deaths [3]: no cases of deaths are found
NGF Content in Gastrocneminal Muscle of Rat (NGF [4]; [6]): 48.0 ± 3.4 pg/g tissue
NGF Content in Ischiadic Nerve of Rat (NGF [4]; [6]): 386.4 ± 30.1* pg/g tissue
NGF Content in Gastrocneminal Muscle of Rat (NGF [4]; [7]): 53.9 ± 4.0 pg/g tissue
NGF Content in Ischiadic Nerve of Rat (NGF [4]; [7]): 351.6 ± 26.8 pg/g tissue
NGF Content in Gastrocneminal Muscle of Rat (NGF [4]; [8]): 56.8 ± 3.3 pg/g tissue
NGF Content in Ischiadic Nerve of Rat (NGF [4]; [8]): 445.7 ± 59.1 pg/g tissue

Source: US20040219238A1, “Remedies” (priority 2001, published 2004)
